Measured values reported in PubChem BioAssay (NCI).
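1) Cells in 96-well plates. 2) Compound, 48 h, 5 concentrations. 3) Linear interpolation between surrounding doses. 4) Unreached endpoint = highest concentration. At the GI50, growth is halved. At the TGI there is no net growth.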

What was measured:
Assay in all cases: growth of human tumour cells (NCI), 48 h
OVCAR-8 ovarian = tested on: OVCAR-8 ovarian
RPMI-8226 leukemia = tested on: RPMI-8226 leukemia
SF-539 CNS = tested on: SF-539 CNS
COLO 205 colon = tested on: COLO 205 colon
NCI-H460 lung = tested on: NCI-H460 lung
NCI-H522 lung = tested on: NCI-H522 lung
SK-MEL-5 melanoma = tested on: SK-MEL-5 melanoma
A498 renal = tested on: A498 renal
NCI-H226 lung = tested on: NCI-H226 lung
SNB-19 CNS = tested on: SNB-19 CNS

| SMILES | TGI (OVCAR-8 ovarian) [µM] | TGI (RPMI-8226 leukemia) [µM] | TGI (SF-539 CNS) [µM] | TGI (COLO 205 colon) [µM] | TGI (NCI-H460 lung) [µM] | TGI (NCI-H522 lung) [µM] | TGI (SK-MEL-5 melanoma) [µM] | TGI (A498 renal) [µM] | TGI (NCI-H226 lung) [µM] | TGI (SNB-19 CNS) [µM] | GI50 (NCI-H522 lung) [µM] | GI50 (RPMI-8226 leukemia) [µM] | GI50 (SNB-19 CNS) [µM] | GI50 (SF-539 CNS) [µM] | GI50 (COLO 205 colon) [µM] | GI50 (SK-MEL-5 melanoma) [µM] | GI50 (NCI-H226 lung) [µM] | GI50 (OVCAR-8 ovarian) [µM] | GI50 (NCI-H460 lung) [µM] | GI50 (A498 renal) [µM] |
| --- | --- | --- | --- | --- | --- | --- | --- | --- | --- | --- | --- | --- | --- | --- | --- | --- | --- | --- | --- | --- |
| O=C(CSC(=S)N1CCOCC1)Nc1nc2c(s1)CCCC2 | > 100 | > 100 | > 100 | > 100 | > 100 | 70.2 | > 100 | > 100 | > 100 | – | – | – | – | – | – | – | – | – | – | – |
| COc1cc(CNc2ccc(C(C)C)cc2)cc(OC)c1OC | 73.4 | 38.2 | 35.8 | – | 26.5 | 24 | 27.9 | 67.7 | – | 99.1 | 11.1 | – | – | – | – | – | – | – | – | – |
| c1cnc2[nH]cc(-c3csc(-c4cn(CCCCN5CCOCC5)c5ccccc45)n3)c2c1 | – | 4.29 | 3.13 | 3.51 | – | 3.77 | 3.16 | – | 8.23 | 3.49 | 1.95 | 1.83 | 1.76 | 1.71 | 1.73 | 1.73 | 2.29 | – | – | – |
| CCC(CC)n1c(C)nc2c1C(=O)c1ccccc1C2=O | > 100 | – | > 100 | > 100 | 49.7 | > 100 | 37.1 | – | > 100 | > 100 | – | – | – | – | – | – | – | – | – | – |
| CSc1nc2c(nc(N)n2C2OCC(O)C(O)C2O)c(=O)n1C (centres undefined) | > 100 | – | > 100 | > 100 | > 100 | > 100 | > 100 | > 100 | > 100 | > 100 | – | – | – | – | – | – | – | – | – | – |
| NC(C(=O)[O-])C(=O)[O-].NC1CCCCC1N.[Pt+4] | > 100 | 19.2 | > 100 | > 100 | 14.7 | – | 12 | > 100 | – | > 100 | – | 0.957 | 6.54 | 5.36 | 2.84 | 1.84 | – | > 100 | 2.29 | 11.6 |
| COC(=O)CNC(=O)[C@@H](OC)[C@@H]1Cc2cc3cc(OC4CC(OC5CC(O)C(O)C(C)O5)C(O)C(C)O4)c(C)c(O)c3c(O)c2C(=O)[C@H]1OC1CC(OC2CC(OC3CC(C)(O)C(O)C(C)O3)C(O)C(C)O2)C(O)C(C)O1 (some centres undefined) | > 50 | 1.38 | 2.3 | 1.18 | > 50 | 0.372 | 0.538 | – | 0.414 | > 50 | 0.0921 | 0.116 | 0.154 | 0.141 | 0.148 | 0.084 | 0.11 | 0.122 | 0.097 | – |
| Cn1nc(-c2ccccc2)c(C(=O)/C=C/c2ccccc2)c(N2CCOCC2)c1=O | > 100 | 59.1 | 39.5 | 35.9 | 54.7 | 29.9 | 37.6 | 35 | – | – | – | – | – | – | – | – | – | – | – | – |
| CC12CCC(=O)C=C1CCC1C2C(O)CC2(C)C(c3csc(N)n3)CCC12 (centres undefined) | > 100 | > 100 | > 100 | > 100 | – | > 100 | > 100 | > 100 | > 100 | > 100 | – | – | – | – | – | – | – | – | – | – |
| Cc1cc(=O)oc2cc3c(cc12)Oc1ccccc1O3 | > 100 | > 100 | 56.7 | > 100 | > 100 | – | > 100 | > 100 | > 100 | > 100 | – | – | – | – | – | – | – | – | – | – |
